Where two headings read alike, the source gives them in different places. Where no end group is shown, it is not given here.
Assays:
[1] = tested on: spontaneously hypertensive rats; experiment: Antihypertensive action in spontaneously hypertensive rats (SBP, tail-cuff); settings: SHRs, oral, 100 mg/kg BW, at 2 h
Protocol: All experiments were performed in accordance with the Regulations of Experimental Animal Administration issued by the State Committee of Science and Technology of the People’s Republic of China and also with the approval of the Animal Experimentation Ethics Committee of The Chinese University of Hong Kong which had been procured prior to the animal experiments. SHRs with systolic blood pressure (SBP) higher than 180 mmHg were randomly divided into six groups after acclimation for 1 week. During the acclimatization period prior to the test, the blood pressures of the rats were measured four times weekly. Each group containing four rats. […] The group treated with crude water extract of T. matsutake received the extract at two different concentrations: 200 mg/kg body weight and 400 mg/kg body weight. SBP was measured thrice at each of the following time points: 0, 0.5, 2, 4, 6 and 8 h after drug/sample administration, using a tail-cuff method with a programmable BP-100A electro-sphygmomanometer (Chengdu Taimeng Software Co., Ltd., Chengdu, China).

ACE [2] = settings: cited from earlier work
ACE [3] = target: T1, ACE (Oryctolagus cuniculus, UniProt P12822); experiment: Assay of ACE inhibitory activity (spectrophotometric, HHL substrate); type: biochemical, rabbit; settings: chemically synthesized peptides; means ± S.D. of three determinations
T1 construct: ACE was prepared using fresh rabbit lungs according to the protocol reported by Hayakari et al; from tissue; host or cells: fresh rabbit lungs (supernatant of homogenate)
T1 sequence (P12822 34-1310): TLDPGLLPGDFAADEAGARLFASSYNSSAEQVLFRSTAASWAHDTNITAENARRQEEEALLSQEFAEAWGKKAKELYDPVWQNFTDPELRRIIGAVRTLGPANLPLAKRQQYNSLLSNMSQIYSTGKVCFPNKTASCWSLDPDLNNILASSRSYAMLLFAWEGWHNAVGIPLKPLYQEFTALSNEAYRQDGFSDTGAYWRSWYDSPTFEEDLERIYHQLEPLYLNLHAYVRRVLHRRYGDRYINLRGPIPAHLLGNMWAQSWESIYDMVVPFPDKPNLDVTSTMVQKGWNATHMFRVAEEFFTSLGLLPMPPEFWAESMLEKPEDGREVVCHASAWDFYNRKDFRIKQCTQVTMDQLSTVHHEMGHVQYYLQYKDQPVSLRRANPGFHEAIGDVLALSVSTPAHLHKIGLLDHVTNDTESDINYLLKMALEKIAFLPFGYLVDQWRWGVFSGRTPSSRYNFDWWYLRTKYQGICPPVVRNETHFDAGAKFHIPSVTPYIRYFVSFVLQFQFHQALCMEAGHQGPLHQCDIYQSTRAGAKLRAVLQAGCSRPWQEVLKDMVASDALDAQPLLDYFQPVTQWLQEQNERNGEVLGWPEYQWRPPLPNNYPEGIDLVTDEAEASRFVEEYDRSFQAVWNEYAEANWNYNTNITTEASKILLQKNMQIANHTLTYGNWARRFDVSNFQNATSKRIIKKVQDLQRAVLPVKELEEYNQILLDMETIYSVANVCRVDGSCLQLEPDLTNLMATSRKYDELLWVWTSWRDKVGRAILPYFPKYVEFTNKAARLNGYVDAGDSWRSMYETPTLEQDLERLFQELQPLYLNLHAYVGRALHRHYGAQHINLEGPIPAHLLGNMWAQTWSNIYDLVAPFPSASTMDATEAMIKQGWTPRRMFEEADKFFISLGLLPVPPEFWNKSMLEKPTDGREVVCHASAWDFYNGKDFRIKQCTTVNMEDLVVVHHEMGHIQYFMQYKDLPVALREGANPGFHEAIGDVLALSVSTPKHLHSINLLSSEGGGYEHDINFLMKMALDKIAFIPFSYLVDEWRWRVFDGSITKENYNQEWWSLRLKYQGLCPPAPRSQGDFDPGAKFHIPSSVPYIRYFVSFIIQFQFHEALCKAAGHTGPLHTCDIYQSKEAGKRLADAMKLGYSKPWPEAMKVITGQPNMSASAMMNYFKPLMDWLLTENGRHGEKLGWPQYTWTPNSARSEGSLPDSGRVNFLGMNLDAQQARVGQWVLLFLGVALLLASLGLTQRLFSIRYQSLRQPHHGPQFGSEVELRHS
Protocol: ACE was prepared using fresh rabbit lungs according to the protocol reported by Hayakari et al.[35] with some modifications. After washing with ice-cold 0.15 M NaCl, the rabbit lungs without connective tissues were cut up to small pieces and homogenized in 10 volumes of ice-old 0.1 M sodium borate buffer (pH 8.3) containing 0.25 M sucrose and 0.1 mM PMSF. The homogenate was centrifuged at 9,000 rpm for 40 min at 4 °C after dialysis at 4 °C overnight in 0.1 M sodium borate buffer (pH 8.3). The resulting supernatant was centrifuged at 9,000 rpm for 40 min at 4 °C again. The ACE activity in the supernatant was determined and the supernatant was aliquoted and then stored at −20 °C for further experiments.
The ACE inhibitory activity was assayed by using a spectrophotometric method following the protocol described by Cushman[36] with modifications. Briefly, an aliquot (20 μL) of the sample was mixed with 20 μL ACE and 150 μL 5 mM HHL in 0.1 M borate buffer (pH 8.3) containing 0.3 M NaCl. The reaction mixture was incubated at 37 °C for 30 min, and then the reaction was terminated by adding 500 μL 1 M HCl. The hippuric acid formed was extracted with 1.2 mL ethyl acetate and centrifuged at 4,000 rpm for 10 min. Then 800 μL of the upper organic phase was heat-evaporated at 95 °C for 35 min to remove ethyl acetate. The dried residue was dissolved in 800 μL distilled water and vortex mixed, and the absorbance was measured spectrophotometrically at 228 nm to estimate ACE inhibitory activity. ACE-inhibitory activity was calculated by using the equation 1: […]
where A was the absorbance of the solution containing ACE and inhibitor, B was the absorbance of solution containing ACE and inhibitor but terminated in advance, C was the absorbance of the solution containing ACE without inhibitor, and D was the absorbance of the solution containing ACE without inhibitor but terminated in advance. The concentration of the inhibitor required to inhibit 50% of the ACE activity under the above assay conditions was defined as IC50.

[4] = mushroom species printed in the row: Tricholoma matsutake, ref not given
[5] = peptide from Pleurotus cystidiosus
[6] = peptide from Tricholoma giganteum
[7] = peptide from Hypsizygus marmoreus

## C[C@H](CS)C(=O)N1CCC[C@H]1C(=O)O [captopril]
[1]
  maximum decrease in SBP: 38 mm Hg

## AHEPVK
ACE [2]; [4]
  IC50: 63000 nM
  Mode of inhibitory of ACE: Competitive
ACE [2]; [5]
  IC50: 62800 nM
  Mode of inhibitory of ACE: Competitive

## GPSMR
ACE [2]; [5]
  IC50: 278000 nM
  Mode of inhibitory of ACE: Competitive

## GQGGP
ACE [2]; peptide from Pholiota adiposa
  IC50: 100 nM

## GQP
ACE [2]; [6]
  IC50: 130 nM
  Mode of inhibitory of ACE: Competitive

## IISKIK [IISKIK]
ACE [3]
  IC50: 1190 ± 260 nM

## ILSKLK [ILSKLK]
ACE [3]
  IC50: 4020 ± 310 nM

## LIDKVVK [LIDKVVK]
ACE [3]
  IC50: 620 ± 420 nM

## LLVTLKK [LLVTLKK]
ACE [3]
  IC50: 950 ± 120 nM

## LSMGSASLSP
ACE [2]; [7]
  IC50: 330 nM
  Mode of inhibitory of ACE: Non-competitive

## PSSNK
ACE [2]; peptide from Agaricus bisporus
  IC50: 129000 nM
  Mode of inhibitory of ACE: Non- competitive

## RIGLF
ACE [2]; peptide from Agaricus bisporus
  IC50: 116000 nM
  Mode of inhibitory of ACE: Competitive

## RLPSEFDLSAFLRA
ACE [2]; peptide from P. cornucopiae
  IC50: 280 nM
  Mode of inhibitory of ACE: Competitive

## RLSGQTIEVTSEYLFRH
ACE [2]; peptide from P. cornucopiae
  IC50: 560 nM
  Mode of inhibitory of ACE: Non-competitive

## VIQKYP
ACE [2]; peptide from Grifola frondosa
  IC50: 120 nM
  Mode of inhibitory of ACE: Competitive

## WALKGYK [TMP, WALKGYK]
ACE [3]
  IC50: 400 ± 290 nM

From article PMC4823785, “A Tricholoma matsutake Peptide with Angiotensin Converting Enzyme Inhibitory and Antioxidative Activities and Antihypertensive Effects in Spontaneously Hypertensive Rats” (Scientific Reports, 2016)
